Consider seven compounds from article PMC9862175 (Molecules, 2023).

For one assay, the target named is T1, 17β-HSD1 (Homo sapiens, UniProt P14061).
T1 construct: endogenous in cells; host or cells: T-47D human breast cancer cells (ATCC), whole cells
T1 sequence (P14061 1-328): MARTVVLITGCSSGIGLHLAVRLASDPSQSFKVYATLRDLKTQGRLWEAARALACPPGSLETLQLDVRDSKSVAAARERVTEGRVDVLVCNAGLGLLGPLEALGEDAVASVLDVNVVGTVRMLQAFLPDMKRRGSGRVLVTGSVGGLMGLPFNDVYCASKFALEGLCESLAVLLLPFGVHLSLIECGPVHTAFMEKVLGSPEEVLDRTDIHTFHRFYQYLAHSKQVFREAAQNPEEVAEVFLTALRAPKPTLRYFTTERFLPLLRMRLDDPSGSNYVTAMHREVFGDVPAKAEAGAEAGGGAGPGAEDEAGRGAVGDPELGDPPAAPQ
The assay is described as follows: 17β-HSD1 inhibition assay: transformation of [3H]-E1 to [3H]-E2 in whole T-47D cells. To be noted: for inhibition at 0.1 µM / inhibition at 1 µM / inhibition at 10 µM: T47D. In kind it is cell-based. The method, then: Cells were maintained under a 5% CO2 humidified atmosphere at 37 °C. The culture media were changed every two or three days and the cells were split once a week to maintain cell propagation.
T-47D cells were grown in a medium supplemented with insulin (50 ng/mL) and 5% dextran-coated charcoal-treated FBS, which was used rather than untreated 10% FBS, to remove the remaining steroid hormones. Stock solution of each compound to be tested was previously prepared in DMSO and diluted with a culture medium to achieve the appropriate concentrations, prior to use. For the assay, the cells (8000 cells/well) were seeded in a 24-well plate. After 24 h of incubation, a diluted solution of each inhibitor was added to the cells to obtain the appropriate final concentration (0.1, 1 and 10 μM). The final concentration of DMSO in the well was adjusted to 0.03%. […] Cells were incubated for 24 h and each inhibitor was assessed in triplicate. […] The organic phase was evaporated to dryness with nitrogen. Residues were dissolved in CH2Cl2, spotted on silica gel TLC plates (EMD Chemicals Inc., Gibbstown, NJ, USA) and eluted with toluene/acetone (4:1) as the solvent system. […] Each compound was quantified with a scintillation counter.

Assay [1] deals with T-47D breast cancer cells. The assay is described as follows: Cell viability (MTS) assay in T-47D cells. It counts as cell-based, human. To be noted: for IC50: cell proliferation after 3 days, MTS; for Stimulation of ER+ cell proliferation (estrogenic activity): T-47D cells, 3 days. The protocol: T-47D cells: Human T-47D breast cancer cells were obtained from American Type Culture Collection (Manassas, VA, USA) and cultured in RPMI-1640 supplemented with L-glutamine ([…]), penicillin (100 IU/mL), streptomycin (100 µg/mL), 17β-estradiol (1 nM) and 10% (v/v) fetal bovine serum (FBS). Cells were maintained under a 5% CO2 humidified atmosphere at 37 °C. The culture media were changed every two or three days and the cells were split once a week to maintain cell propagation.
(§1) The cell proliferation assays were performed using 3-(4,5-dimethylthiazol-2-yl)-5-(3-carboxymethoxyphenyl)-2-(4-sulfophenyl)-2H-tetrazolium (MTS) (Cell Titer 96 Aqueous, Promega, Nepean, ON, Canada), as previously described. Briefly, cells (5000/well for T-47D or 3000/well for Z-12) were plated in triplicate in 96-well plates in appropriate culture medium (total of 90 µL). Before each treatment, the cells were incubated at 37 °C in a 5% CO2 humidified atmosphere for 24 h. Compounds 5, 6, 10 and RM-581, as positive control, were dissolved in DMSO to obtain stock solutions, which were diluted at multiple concentrations with culture media to obtain the desired final concentration by adding 10 µL in each well, and the mixture was incubated for 3 days. Following treatment, 20 µL of a solution of MTS were added to each well and the mixture was incubated for 4 h. The plates were subsequently analyzed at 490 nm using a Tecan M-200 microplate reader (Männedorf, Switzerland) and the concentration inhibiting 50% of cell proliferation was determined using GraphPad Prism 6 software.

Assay [2] relates to Z-12 endometriotic epithelial cells. The assay is described as follows: Cell viability (MTS) assay in Z-12 cells. In kind it is cell-based, human. To be noted: for IC50: cell proliferation after 3 days, MTS, read-out: Z-12 Cells (Endometriosis) (IC50 in μM), cell proliferation; for Stimulation of ER+ cell proliferation (estrogenic activity): Z-12 cells, 3 days. The protocol:
Z-12 cells: Human Z-12 endometriotic epithelial cells were obtained from Dr. Asgi T. Fazleabas (Michigan State University, Grand Rapids, MI). Cells were grown in Dulbecco’s Modified Eagle medium (DMEM/F12) supplemented with 5% (v/v) FBS treated with dextran-coated charcoal, L-glutamine ([…]), penicillin (100 IU/mL) and streptomycin (100 µg/mL). Cells were maintained under a 5% CO2 humidified atmosphere at 37 °C. The culture media were changed every two or three days and the cells were split once a week to maintain cell propagation.
as §1

The mark [3] stands for this setting: T-47D cells, [3H]-E1/E1 60 nM, 24 h, inhibitor 0.1 μM.
Setting [4] is: T-47D cells, [3H]-E1/E1 60 nM, 24 h, inhibitor 1 μM.
[5] abbreviates: T-47D cells, [3H]-E1/E1 60 nM, 24 h, inhibitor 10 μM.
[6] abbreviates: Homo sapiens, Epithelial cell, 72 h.
The mark [7] stands for this setting: read-out: Inhibition (IC50 in μM) of E1 to E2 transformation by 17β-HSD1, T-47D cells, [3H]-E1/E1 60 nM, 24 h.

Values joined by “and” are separate entries in the source; they are usually repeats but may differ in a detail not shown here. Identical values can stand only once. Like-named read-outs stand apart in the source and are kept apart here.

A word on the inhibition: it is how much of the control response was suppressed.

Turning to `C[C@]12CCC3c4ccc(O)cc4CCC3C1C[C@@H](CCCBr)[C@@H]2O` (some centres unmarked) [EM-251], at 17β-HSD1, the IC50 was determined as 0.58 µM, at 0.1 µM the inhibition was 43.8 ± 0.2%, at 1 µM the inhibition was 36.9 ± 9.3% and the inhibition at 10 µM came to 86.6 ± 8%.

Regarding `C[C@]12CC[C@@H]3c4ccc(O)cc4CC[C@H]3[C@@H]1CCC2=O` [E1, estrone], at 17β-HSD1 (setting [3]), at 0.1 µM the inhibition was 45% and the “Inhibition (% at 0.1 μM)” value is 44.9 ± 14.7%. Also, at 17β-HSD1 (setting [4]), 1 µM produced 61% inhibition and the “Inhibition (% at 1 μM)” value is on record as 60.9 ± 8.3%. Besides, on 17β-HSD1 (setting [5]), the inhibition at 10 µM is 78% and the “Inhibition (% at 10 μM)” value stood at 78.1 ± 2.2%.

The compound `C[C@]12CC[C@@H]3c4ccc(Oc5cccc(C(N)=O)c5)cc4CC[C@H]3[C@@H]1CC[C@@H]2O` [Compound 6, 3-(3-Carbamoylphenyloxy)-estra-1,3,5(10)-trien-17β-ol] yielded an IC50 in assay [1] (Homo sapiens, T47D, 72 h) of 37 µM. For the same compound, the “Stimulation of ER+ cell proliferation (estrogenic activity)” value (shortened to “Stimulation of ER+ cell proliferation”) in assay [1] was “did not stimulate”. Moreover, the IC50 in assay [2] (setting [6]) was > 30 µM. Also, the “Stimulation of ER+ cell proliferation” value in assay [2] is given as “did not stimulate”. At 17β-HSD1, this compound had an IC50 of 1.2 µM, an inhibition at 0.1 µM of 40 ± 6.5%, an inhibition at 1 µM of 48.6 ± 15.7% and an inhibition at 10 µM of 59.6 ± 1.5%.

Turning to `C[C@]12CC[C@@H]3c4ccc(Oc5cccc(C(N)=O)c5)cc4CC[C@H]3[C@@H]1C[C@@H](CCCBr)[C@@H]2O` [Compound 10, 3-(3-Carbamoylphenyloxy)-16α-(3-bromopropyl)-estra-1,3,5(10)-trien-17β-ol], the IC50 amounted to 14 µM in assay [1] (Homo sapiens, T47D, 72 h); 20 µM in assay [2] (setting [6]); 1.3 µM at 17β-HSD1 (setting [7]). Moreover, the “Stimulation of ER+ cell proliferation” value in assay [1] and in assay [2] was “did not stimulate” in each case. Also, the “Inhibitory activity, fold lower than EM-251” value at 17β-HSD1 (IC50 1.3 μM vs 0.58 μM of EM-251, T-47D cells) came out at 2 fold. For the same compound, the inhibition at 0.1 µM at 17β-HSD1 turned out to be 28.2 ± 5.4%. This compound registered an inhibition at 1 µM against 17β-HSD1 of 37 ± 14.5%. The compound further registered an inhibition at 10 µM against 17β-HSD1 of 82.1 ± 5.7%.

As for `C[C@]12CC[C@@H]3c4ccc(Oc5cccc(C(N)=O)c5)cc4CC[C@H]3[C@@H]1CCC2=O` [Compound 5, 3-(3-Carbamoylphenyloxy)-estra-1,3,5(10)-trien-17-one], in assay [1] (Homo sapiens, T47D, 72 h), the IC50 was determined as 49 µM. Also, the “Stimulation of ER+ cell proliferation” value in assay [1] is recorded as “did not stimulate”. In assay [2] (setting [6]), the IC50 was > 30 µM. Also, the “Stimulation of ER+ cell proliferation” value in assay [2] was “did not stimulate”. On 17β-HSD1, the IC50 was found to be 0.31 µM, testing at 0.1 µM gave an inhibition of 29.1 ± 6.2%, the inhibition at 1 µM was found to be 70.7 ± 14.1% and the inhibition at 10 µM is 98.9 ± 2.8%.

For the compound `C[C@]12CC[C@@H]3c4ccc(CCBr)cc4CC[C@H]3[C@@H]1C[C@H](Cc1cccc(C(N)=O)c1)[C@@H]2O` [PBRM], the “Inhibition (% at 0.1 μM)” value on 17β-HSD1 (setting [3]) is 44% and 43.8 ± 3.4%. Besides, the “Inhibition (% at 1 μM)” value at 17β-HSD1 (setting [4]) was 75% and 74.8 ± 3.2%. Also, the “Inhibition (% at 10 μM)” value on 17β-HSD1 (setting [5]) was determined as 91.0 ± 3.8%. For the same compound, the IC50 at 17β-HSD1 (setting [7]) is 0.15 µM.

In the case of `C#C[C@]1(O)CC[C@H]2[C@@H]3CCc4cc(OC)c(N5CCN(C(=O)[C@@H]6CCCN6C(=O)c6ccc7ccccc7n6)CC5)cc4[C@H]3CC[C@@]21C` [RM-581, reference compound], the values for the IC50 in assay [1] and in assay [2] were 0.61 µM and 1.5 µM, respectively.
